# Reference: article PMC7463632, “Conformational Restriction of Histamine with a Rigid Bicyclo[3.1.0]hexane Scaffold Provided Selective H3 Receptor Ligands” (Molecules, 2020)
# Values joined by “and” are separate entries in the source; they are usually repeats but may differ in a detail not shown here. Equal entries are not always repeated. Where two headings read alike, the source gives them in different places.
# What was measured:
# [1] = molecular target: T1, human histamine H4 receptor (Homo sapiens, UniProt Q9H3N8); design: method as in PMID 16942032; conditions: human H4R, [3H]histamine; mean ± SEM; cited from earlier work
# T1 construct: purchased Euroscreen (Brussels, Belgium); host or cells: CHO cells (membrane preparations)
# [2] = molecular target: T2, human histamine H3 receptor (Homo sapiens, UniProt Q9Y5N1); conditions: cited from earlier work; for Ki: human H3R, [3H]Nα-methylhistamine, mean ± SEM; for Selectivity Ratio (H4/H3): ratio of Ki H4 / Ki H3, human receptors
# T2 construct: purchased Euroscreen (Brussels, Belgium); host or cells: CHO cells (membrane preparations)
# T2 sequence (Q9Y5N1 whole entry): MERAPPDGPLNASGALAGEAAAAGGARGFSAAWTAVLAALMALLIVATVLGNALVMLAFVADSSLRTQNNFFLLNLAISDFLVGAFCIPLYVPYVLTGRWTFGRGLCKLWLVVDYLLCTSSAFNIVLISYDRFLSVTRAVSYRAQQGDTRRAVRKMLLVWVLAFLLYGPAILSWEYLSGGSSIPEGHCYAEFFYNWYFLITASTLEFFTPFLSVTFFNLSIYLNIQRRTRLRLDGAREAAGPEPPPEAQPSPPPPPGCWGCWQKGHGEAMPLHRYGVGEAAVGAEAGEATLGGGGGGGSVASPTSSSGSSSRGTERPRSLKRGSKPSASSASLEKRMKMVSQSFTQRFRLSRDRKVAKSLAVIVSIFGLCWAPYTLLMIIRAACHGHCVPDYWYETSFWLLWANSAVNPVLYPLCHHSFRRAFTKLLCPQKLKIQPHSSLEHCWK
# [3] = molecular target: T2, human histamine H3 receptor; assay: Radioligand binding assay with [3H]Nα-methylhistamine on CHO cell membranes expressing recombinant human H3 receptor; conditions: for Ki: human H3R, CHO cell membranes, [3H]Nα-methylhistamine, mean ± SEM (n = 3–5); for Selectivity Ratio (H4/H3): ratio of Ki H4 / Ki H3, human receptors
# Procedure: (§1) The binding affinities of 6, 7, ent-6, and ent-7 for the human H3R subtype with [^3H]N^α-methylhistamine and the human H4R subtype with [^3H]histamine were evaluated using cell membranes expressing human H3R or H4R according to the previously reported method, and the results are summarized in Table 1.
# (§2) The protocol of the biological assay was according to the previous report. The membrane preparations of Chinese hamster ovary (CHO) cells, which expressed recombinant human histamine H3 or H4 receptors, were purchased from Euroscreen (Brussels, Belgium). The binding assay of the H3 and H4 receptors was performed using [^3H]N^α-methylhistamine (Perkin-Elmer, Boston, MA) and [^3H]histamine (Perkin-Elmer), respectively. Briefly, the membrane preparations (7.5–15 µg protein) were incubated with different concentrations of [^3H]N^α-methylhistamine (0.1–3 nM) and of [^3H]histamine(1–30 nM) for 30 min at 25 °C in 50 mM Tris/5 mM MgCl2 buffer (pH 7.4). The reaction was terminated by rapid filtration (Cell Harvester, Brandel Co., Gaithersburg, MD) through Whatman GF/B glass fiber filters presoaked for 2 h in 0.5% polyethyleneimine, and the filters were rinsed three times with an ice-cold buffer (2 mL). Membrane-bound radioactivity was extracted from filters overnight in scintillation fluid (toluene, 2 L; Triton X-100, 1 L; 2,5-diphenyloxazole, 15 g; 1,4-bis[2-(5-phenyloxazolyl)]benzene, 0.3 g) and determined in a liquid scintillation counter. […] The apparent dissociation constants (Kd) for each radioligand was determined by nonlinear regression analysis of the curve generated by plotting specific binding concentration versus concentration of the radioligand with GraphPad Prism (GraphPad Software, San Diego, CA) using a one-site binding curve equation. […] The inhibition constant, Ki, was calculated from the equation, Ki = IC50/(1 + L/Kd), where L equals the concentration of each radioligand. The data were presented as mean ± SE (n = 3–5).
# [4] = molecular target: T1, human histamine H4 receptor; assay: Radioligand binding assay with [3H]histamine on CHO cell membranes expressing recombinant human H4 receptor; conditions: human H4R, mean ± SEM (n = 3–5)
# Procedure: as §1, §2
Ki [3],Selectivity Ratio (H4/H3) [3],Ki [4],fold lower H3R binding affinity than that of 3 ([3]; H3R Ki of 5 compared with 3),SMILES,Ki [1],Ki [2],Selectivity Ratio (H4/H3) [2]
–,–,–,–,"Clc1ccc(CNCC[C@@H]2C[C@@H]2c2cnc[nH]2)cc1 (single isomer, unassigned) [ent-3]",0.0076 ± 0.0004 µM,0.0084 ± 0.0015 µM,0.9
0.0219 ± 0.006 µM,19,0.416 ± 0.155 µM,–,"Clc1ccc(CNC[C@@H]2CC[C@@]3(c4c[nH]cn4)C[C@@H]23)cc1 (single isomer, unassigned) [ent-6]",–,–,–
0.0148 ± 0.0038 µM,4.7,0.0692 ± 0.021 µM,–,"Clc1ccc(CNC[C@H]2CC[C@@]3(c4c[nH]cn4)C[C@@H]23)cc1 (single isomer, unassigned) [ent-7]",–,–,–
–,–,–,–,Clc1ccc(CNCCC2CC2c2c[nH]cn2)cc1 (stereo not shown) [Compound 3],0.0372 ± 0.0027 µM,0.0036 ± 0.0004 µM,10.3 and 10
–,1.3,0.009 ± 0.001 µM,–,CC[C@@H](CNCc1ccc(Cl)cc1)[C@H]1C[C@@H]1c1c[nH]cn1 [Compound 4],–,–,–
–,1.2,0.0765 ± 0.014 µM,more than 15 fold,CC[C@H](CNCc1ccc(Cl)cc1)[C@H]1C[C@@H]1c1c[nH]cn1 [Compound 5],–,–,–
0.0316 ± 0.0082 µM,16,0.501 ± 0.201 µM,–,"Cl.Cl.Clc1ccc(CNC[C@H]2CC[C@]3(c4c[nH]cn4)C[C@H]23)cc1 [Compound 6, (1S,4S,5R)-4-[N-(4-Chlorobenzyl)aminomethyl]-1-(1H-imidazol-4-yl)bicyclo[3.1.0]hexane dihydrochloride]",–,–,–
0.0056 ± 0.0016 µM,–,0.602 ± 0.343 µM,–,Clc1ccc(CNC[C@@H]2CC[C@]3(c4c[nH]cn4)C[C@H]23)cc1 [Compound 7],–,–,–
